In general, Ki refers to a measure of affinity in units of concentration, obtained from inhibition or displacement. A high value points to lower affinity.

For assay [1], the target named is VchCAα (Vibrio cholerae, UniProt Q9KMP6). Put plainly: stopped-flow CO2 hydrase assay. It is filed as biochemical.
In assay [2] the target is VchCAβ (Vibrio cholerae, UniProt Q9KUD6). In words: biochemical.
Sequence of VchCAβ (Q9KUD6 1-222): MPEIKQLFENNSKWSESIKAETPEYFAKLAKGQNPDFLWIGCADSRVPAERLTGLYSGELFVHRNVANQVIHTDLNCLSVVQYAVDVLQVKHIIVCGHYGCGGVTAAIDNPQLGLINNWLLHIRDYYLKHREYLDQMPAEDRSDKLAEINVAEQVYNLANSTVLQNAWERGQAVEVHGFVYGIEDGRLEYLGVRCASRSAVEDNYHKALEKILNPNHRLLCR

Sequence of VchCAα (Q9KMP6 21-239): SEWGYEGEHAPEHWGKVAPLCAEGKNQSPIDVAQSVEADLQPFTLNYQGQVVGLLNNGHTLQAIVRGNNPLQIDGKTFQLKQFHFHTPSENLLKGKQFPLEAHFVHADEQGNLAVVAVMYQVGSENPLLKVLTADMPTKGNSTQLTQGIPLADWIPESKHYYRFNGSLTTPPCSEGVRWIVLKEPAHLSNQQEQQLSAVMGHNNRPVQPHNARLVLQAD

On to `COc1ccc(OCc2cn(CCCCS(N)(=O)=O)nn2)cc1` [compound 16, 16], for which the Ki in assay [1] stood at 28.7 µM; in assay [2], 6.13 µM.
For `NS(=O)(=O)CCCn1cc(CNC(=O)Nc2ccc(C(F)(F)F)cc2)nn1` [compound 7, 7] the same measures were 11.2 µM and 0.67 µM.
In the same order, the values of `Cc1ccc(NC(=O)NCc2cn(CCCCS(N)(=O)=O)nn2)cc1` [compound 19, 19] are 18.3 µM and 2.86 µM.
In the same order, the values of `NS(=O)(=O)CCCn1cc(CNC(=O)Nc2ccc(F)cc2)nn1` [compound 5, 5] are 13.4 µM and 0.93 µM.
Regarding `NS(=O)(=O)CCCCn1cc(CNC(=O)Nc2ccc(C(F)(F)F)cc2)nn1` [compound 20, 20], the Ki in assay [1] worked out at 16.8 µM; in assay [2], 3 µM.
For `NS(=O)(=O)CCCCn1cc(CNC(=O)Nc2ccc(F)cc2)nn1` [compound 18, 18] the same measures were 16.9 µM and 3.41 µM.
For `COc1ccc(OCc2cn(CCCS(N)(=O)=O)nn2)cc1` [compound 3, 3] the same measures were 16.5 µM and 2.96 µM.
For `COc1cccc(NC(=O)NCc2cn(CCCCS(N)(=O)=O)nn2)c1` [compound 22, 22] the same measures were 14 µM and 1.97 µM.
Take `Cc1ccc(NC(=O)NCc2cn(CCCS(N)(=O)=O)nn2)cc1` [compound 6, 6]: the affinity in assay [2], expressed as Ki, was 0.82 µM.
Take `NS(=O)(=O)CCCn1cc(COc2ccccc2)nn1` [compound 1, 1]: the Ki in assay [1] turned out to be 29.1 µM; in assay [2], 4.16 µM.
For `COc1cccc(NC(=O)NCc2cn(CCCS(N)(=O)=O)nn2)c1` [compound 9, 9] the same measures were 17.5 µM and 1.72 µM.
For `NS(=O)(=O)CCCCn1cc(COc2ccccc2)nn1` [compound 14, 14] the same measures were 34.4 µM and 6.91 µM.

For the origin of these results see publication PMC11650360 (Archiv Der Pharmazie, 2024).
